Data published in patent publication US8980226B2, “Aerosolized fosfomycin/aminoglycoside combination for the treatment of bacterial respiratory infections” (Gilead Sciences, Inc., priority 2004, dated 2015).
Read-outs that look alike come from different tables or passages of the source.

Key:
Type in all cases: cell-based
B. cepacia = assay: MIC, agar-plate dilution method
Protocol: (§1) “Minimal inhibitory concentration (MIC)” means the lowest concentration of antibiotic (s) that prevents visible growth after incubation for 18-20 hours at 35° C.
(§2) The efficacy of antibiotics and antibiotic combinations against Gram-positive and Gram-negative bacteria representative of species that cause respiratory infections in patients with cystic fibrosis, bronchiectasis, sinusitis, and ventilator-associated pneumonia were evaluated in MIC assays. P. aeruginosa strains were isolated from lung sputum samples collected from cystic fibrosis patients, blood cultures, respiratory tract infections, and skin or soft tissue infections. E. coli, H. influenzae, B. cepacia, S. maltophilia, K. pneumoniae, M. catarrhalis, S. aureus, S. pneumoniae, S. pyogenes, and E. faecalis were isolated from respiratory tract infections. E. coli ATCC 25922, P. aeruginosa ATCC 27853, and S. aureus ATCC 29213 were used as quality control stains.
(§3) The MICs of fosfomycin alone, tobramycin alone, or combinations of fosfomycin plus tobramycin were determined by the agar-plate dilution method according to NCCLS guidelines (NCCLS, 2003). Bacterial strains were streaked onto Trypic Soy Agar plates (PML Microbiologicals, Wilsonville, Oreg.) containing 5% defibrinated sheep blood (hereafter referred to as blood agar plates) and incubated overnight at 35° C. Two to three bacterial colonies from the overnight cultures were inoculated into 3 mL of sterile normal saline, vortexed briefly, and adjusted to a 0.5 McFarland standard (NCCLS, 2003). The bacterial suspension was diluted 1:40 in sterile normal saline and served as the inoculum. Mueller-Hinton agar plates (hereafter referred to as MHA) were prepared by combining 16 g of agarose (Becton-Dickinson, Sparks, Md.), 22 g of Mueller-Hinton broth powder (Becton-Dickinson, Sparks, Md.), and adjusted to 1 L with distilled water. The agar was sterilized by autoclaving, cooled to 55° C., and supplemented with 25 μg/mL of glucose-6-phosphate (Sigma-Aldrich, St. Louis, Mo.). Twenty-five mL of cooled agar was aliquoted into 50 mL conical tubes and supplemented with appropriate concentrations of antibiotic to achieve concentrations ranging from 0.06 μg/mL to 512 μg/mL. After gently mixing the agar and antibiotic, the suspension was poured into sterile 100 mm petri dishes and allowed to solidify at room temperature. The antibiotic agar plates were inoculated with approximately 2×10^4 CFU/spot with a 48-point inoculator (Sigma-Aldrich, St. Louis, Mo.). The MIC was defined as the lowest concentration of antibiotic (s) that prevented visible growth after incubation for 18-20 hours at 35° C. The efficacy of a particular antibiotic or antibiotic combination on large populations of P. aeruginosa was determined by calculating the MIC50 and MIC90 values. The MIC50 value was defined as the concentration of antibiotic(s) which inhibited 50% of the P. aeruginosa strains. The MIC90 value was defined as the concentration of antibiotic(s) which inhibited 90% of the P. aeruginosa strains (Wiedemann and Grimm, 1996).

E. coli = assay: MIC, agar-plate dilution method; conditions: Escherichia coli
Protocol: as §1, §2, §3

H. influenzae = assay: MIC, agar-plate dilution method
Protocol: as §1, §2, §3

M. catarrhalis = assay: MIC, agar-plate dilution method
Protocol: as §1, §2, §3

S. aureus = assay: MIC, agar-plate dilution method
Protocol: as §1, §2, §3

S. maltophilia = assay: MIC, agar-plate dilution method; conditions: Stenotrophomonas maltophilia
Protocol: as §1, §2, §3

[1] = system: 100 P. aeruginosa strains isolated from lung sputum samples from cystic fibrosis patients; assay: MIC50 and MIC90 for 100 P. aeruginosa strains, without mucin; conditions: Pseudomonas aeruginosa
Protocol: as §3

P. aeruginosa COR-014 = assay: Multistep resistance analysis (continuous serial passage); conditions: for MIC: Pseudomonas aeruginosa
Protocol: A single colony of P. aeruginosa COR-014 was inoculated into 5 mL of MHCAB and briefly vortexed. Two-fold serial dilutions of fosfomycin alone covering the range of 1 μg/mL-512 μg/mL, tobramycin alone covering 0.0625 μg/mL-512 μg/mL, and a 9:1 fosfomycin:tobramycin combination covering 0.0625 μg/mL-512 μg/mL were made in CAMHB. Ten microliters of bacterial suspension was pipetted into 3 mL of each antibiotic dilution and incubated statically at 35° C. for 18-24 hours. Tubes with the highest concentration of antibiotic having visible bacterial growth were selected from each antibiotic dilution series and 100 μl of the culture was pipeted into a fresh antibiotic dilution series. Tubes were incubated statically at 35° C. for 18-24 hours. This process was repeated for a total of 28 times. MICs of fosfomycin alone, tobramycin alone, and fosfomycin plus tobramycin were determined for the parent strain and resistant isolates collected after each passage as described in Example 5, Method C.

[2] = Haemophilus influenzae, H. influenzae COR-042, read-out: MIC
[3] = Moraxella catarrhalis, M. catarrhalis COR-109, read-out: MIC
[4] = Staphylococcus aureus, S. aureus COR-051 (MSSA), read-out: MIC
[5] = Staphylococcus aureus, S. aureus COR-055 (MRSA), read-out: MIC
[6] = S. maltophilia COR-083, read-out: MIC
[7] = 28 days of continuous exposure, clinical P. aeruginosa strain
[8] = COR014, 168 h, read-out: MIC 7d
[9] = COR014, 336 h, read-out: MIC 14d
[10] = COR014, 504 h, read-out: MIC 21d
[11] = COR014, 672 h, read-out: MIC 28d
[12] = COR014, read-out: MIC of the parent strain

Row | Structure (SMILES) | MIC (E. coli; E. coli COR-032) [µg/mL] | MIC (E. coli; E. coli COR-039) [µg/mL] | MIC (E. coli; E. coli COR-040) [µg/mL] | MIC (H. influenzae; [2]) [µg/mL] | MIC (M. catarrhalis; M. catarrhalis COR-113) [µg/mL] | MIC (M. catarrhalis; [3]) [µg/mL] | MIC (S. aureus; [4]) [µg/mL] | MIC (S. aureus; [5]) [µg/mL] | MIC (S. maltophilia) [µg/mL] | MIC (S. maltophilia; [6]) [µg/mL] | MIC50 [1] [µg/mL] | MIC90 [1] [µg/mL] | MIC (P. aeruginosa COR-014; COR014, 0 h, read-out: MIC 0d) [µg/mL] | MIC (P. aeruginosa COR-014; [8]) [µg/mL] | MIC (P. aeruginosa COR-014; [9]) [µg/mL] | MIC (P. aeruginosa COR-014; [10]) [µg/mL] | MIC (P. aeruginosa COR-014; [11]) [µg/mL] | MIC (P. aeruginosa COR-014; [12]) [µg/mL] | other results
1 | NC[C@H]1O[C@H](O[C@H]2[C@H](O)[C@@H](O[C@H]3O[C@H](CO)[C@@H](O)[C@H](N)[C@H]3O)[C@H](N)C[C@@H]2N)[C@H](N)C[C@@H]1O [Tobramycin] | 0.5 | 0.25 | 32 | 0.5 | 8 | 8 | 0.25 | 0.25 | 128 | 512 | 2 | 16 | 0.5 | 0.5 | 0.5 | 32 | 64 | 0.5 | MIC (B. cepacia; Burkholderia cepacia, B. cepacia COR-090): 128 µg/mL; MIC (B. cepacia; Burkholderia cepacia, B. cepacia COR-098, read-out: MIC): 64 µg/mL; MIC (H. influenzae; H. influenzae COR-049): 0.5 µg/mL; MIC (S. aureus; Staphylococcus aureus, S. aureus COR-059): 128 µg/mL; MIC (S. aureus; Staphylococcus aureus, S. aureus COR-060 (GISA), read-out: MIC): 64 µg/mL; MIC (S. maltophilia; S. maltophilia COR-082, read-out: MIC): 4 µg/mL; increase in MIC on continuous exposure (P. aeruginosa COR-014; [7]): 128 fold
2 | C[C@@H]1O[C@@H]1P(=O)(O)O [Fosfomycin] | 1 | 64 | 1 | 8 | 4 | 4 | 1 | 4 | 128 | 64 | 64 | ≥ 512 | 16 | > 512 | > 512 | > 512 | > 512 | 8 | MIC (B. cepacia; B. cepacia COR-098): ≧2048 μg/mL; MIC (B. cepacia; Burkholderia cepacia, B. cepacia COR-090, read-out: MIC): ≥ 2050 µg/mL; MIC (H. influenzae; Haemophilus influenzae, H. influenzae COR-049): 128 µg/mL; MIC (S. aureus; S. aureus COR-060 (GISA)): 2 µg/mL; MIC (S. aureus; Staphylococcus aureus, S. aureus COR-059, read-out: MIC): 2 µg/mL; MIC (S. maltophilia; S. maltophilia COR-087, read-out: MIC): ≥ 512 µg/mL; development of resistance on continuous exposure (P. aeruginosa COR-014; [7]): rapid and dramatic development of resistance
